Experimental data reported in PubChem BioAssay (NCI).
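96-well plates; 48 h exposure; 5 concentrations. Endpoints by linear interpolation between flanking doses. Not reached: highest tested concentration assigned. TGI: concentration producing complete growth inhibition.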

Key:
Experiment in all cases: NCI anticancer screen, dose series, 48 h
786-0 renal = system: 786-0 renal
CAKI-1 renal = system: CAKI-1 renal
HCC-2998 colon = system: HCC-2998 colon
K-562 leukemia = system: K-562 leukemia
MALME-3M melanoma = system: MALME-3M melanoma
NCI-H522 lung = system: NCI-H522 lung
OVCAR-5 ovarian = system: OVCAR-5 ovarian
U251 CNS = system: U251 CNS
UO-31 renal = system: UO-31 renal
MDA-N = system: MDA-N
NCI/ADR-RES ovarian = system: NCI/ADR-RES ovarian
SNB-19 CNS = system: SNB-19 CNS

Measured: TGI

COC(=O)C12Oc3ccc(-c4ccc5c(c4O)C(=O)C4=CCC(C)C(O)C4(C(=O)OC)O5)c(O)c3C(=O)C1=CCC(C)C2O (configuration not stated)
2.45 µM: NCI-H522 lung
> 30.6 µM: K-562 leukemia
3.28 µM: MALME-3M melanoma
2.6 µM: HCC-2998 colon
3.98 µM: OVCAR-5 ovarian
3.06 µM: U251 CNS
2.98 µM: 786-0 renal
4.7 µM: CAKI-1 renal
2.79 µM: UO-31 renal

Cc1ccc2c(=O)cc(-c3csc4ccccc34)[nH]c2n1
6.47 µM: OVCAR-5 ovarian
54.6 µM: MALME-3M melanoma
15.3 µM: SNB-19 CNS
< 0.01 µM: MDA-N | NCI-H522 lung
16 µM: 786-0 renal
2.14 µM: UO-31 renal
0.0783 µM: U251 CNS
0.228 µM: CAKI-1 renal
> 39.7 µM: K-562 leukemia
0.569 µM: NCI/ADR-RES ovarian

COc1ccc2c(c1)O[C@@H]1C(O)Oc3cc(OC)c(OC)cc3[C@]1(O)C2=O (some centres not stated)
36.5 µM: NCI-H522 lung
not listed: HCC-2998 colon | MALME-3M melanoma | UO-31 renal
> 100 µM: all other assays above

Oc1ccc(Cl)cc1C1=N/C(=N\CN2CCN(C/N=C3/N=C(c4cc(Cl)ccc4O)CC(c4ccccc4)N3)CC2)NC(c2ccccc2)C1 (configuration not stated)
65.4 µM: 786-0 renal
97.6 µM: CAKI-1 renal
not listed: NCI-H522 lung
> 100 µM: all other assays above

CCCCOC(=O)CNC(=O)OCCCCC#CC#CCCCCOC(=O)NCC(=O)OCCCC
not listed: MDA-N | NCI/ADR-RES ovarian
> 100 µM: all other assays above

N=C(N)SCCON1C(=O)c2ccccc2C1=O
not listed: HCC-2998 colon
> 100 µM: all other assays above

NCCC(N)C(=O)O (configuration not stated)
not listed: HCC-2998 colon
> 100 µM: all other assays above

Cn1c(=O)c2c(nc(NCCCCl)n2CC(=O)O)n(C)c1=O
not listed: MALME-3M melanoma
> 100 µM: all other assays above

Cc1c(C)c(C)c(-n2[nH]c(=O)n(C)c2=O)c(C)c1C
not listed: HCC-2998 colon | MALME-3M melanoma | NCI-H522 lung
> 100 µM: all other assays above

Cc1ccc(C)n2c1nc1ccc3ccccc3c12
not listed: CAKI-1 renal | NCI-H522 lung
> 100 µM: all other assays above

CCC(C)[C@H](NC(=O)N[C@H](C)c1ccccc1)C(=O)OC (some centres not stated)
not listed: MALME-3M melanoma | NCI-H522 lung | NCI/ADR-RES ovarian
> 100 µM: all other assays above

O=C(c1ccc(Cl)cc1)c1ccc(OCC(=O)N2CCN(c3ccccc3)CC2)cc1
not listed: NCI-H522 lung | MDA-N | NCI/ADR-RES ovarian
> 100 µM: all other assays above

S=C1c2ccccc2NC(=NC2CCCC2)C2CSCN12 (configuration not stated)
not listed: MDA-N
> 100 µM: all other assays above

CC(=O)C1CC(C)=CCC12C(=O)Nc1ccccc12 (configuration not stated)
not listed: UO-31 renal | MDA-N | NCI/ADR-RES ovarian
> 100 µM: all other assays above

CCC(CCCN)Nc1cc(OC)cc2cccnc12 (configuration not stated)
52.7 µM: HCC-2998 colon
not listed: NCI-H522 lung | U251 CNS
> 100 µM: all other assays above

CN(C)C(=S)N/N=C\C=N/NC(=S)N(C)C
> 85.3 µM: NCI-H522 lung
not listed: MALME-3M melanoma | NCI/ADR-RES ovarian
> 100 µM: all other assays above

COc1cccc2cc(C)c(C(=O)c3ccccc3)nc12
not listed: MDA-N | NCI/ADR-RES ovarian
> 100 µM: all other assays above

Brc1ccc(N=NN2CCCCC2)cc1
not listed: HCC-2998 colon | MALME-3M melanoma
> 100 µM: all other assays above

Cc1cn(C2CC(n3cc(Cn4cc(F)c(=O)[nH]c4=O)nn3)C(CO)O2)c(=O)[nH]c1=O (configuration not stated)
not listed: K-562 leukemia | NCI-H522 lung
> 100 µM: all other assays above

CCN1CC(C)Cn2c(=O)[nH]c3cc(Br)cc1c32 (configuration not stated)
51.8 µM: MDA-N
not listed: NCI-H522 lung
> 100 µM: all other assays above

C=CC(=O)N1C/C(=C\c2ccc(N(C)C)cc2)C(=O)/C(=C/c2ccc(N(C)C)cc2)C1
78.7 µM: MDA-N
not listed: NCI-H522 lung
> 100 µM: all other assays above
